Measured values from the NIST ThermoML archive (doi:10.1021/je049672l).

Conditions: for mass density: Vibrating tube method; for vapor or sublimation pressure: Closed cell (Static) method

CCC [propane]
Fluid (supercritical or subcritical phases)
Conditions | mass density [kg/m3]
240 K, 527.3 kPa | 570.78
240 K, 1044.8 kPa | 571.46
240 K, 1522.4 kPa | 572.08
240 K, 1978.3 kPa | 572.68
240 K, 2477.9 kPa | 573.32
240 K, 2999.9 kPa | 573.98
240 K, 3513 kPa | 574.62
240 K, 4045.7 kPa | 575.29
240 K, 4504.5 kPa | 575.85
240 K, 4957.8 kPa | 576.41
240 K, 5475.7 kPa | 577.04
240 K, 6018.3 kPa | 577.69
240 K, 6523.2 kPa | 578.3
240 K, 7043.3 kPa | 578.91
250 K, 513.8 kPa | 558.73
250 K, 1008.1 kPa | 559.47
250 K, 1508.3 kPa | 560.2
250 K, 2008.3 kPa | 560.93
250 K, 2524.1 kPa | 561.67
250 K, 3016.9 kPa | 562.38
250 K, 3503.7 kPa | 563.05
250 K, 3993.1 kPa | 563.74
250 K, 4478.5 kPa | 564.4
250 K, 5045.1 kPa | 565.17
250 K, 5495.4 kPa | 565.78
250 K, 5999.9 kPa | 566.46
250 K, 6543.5 kPa | 567.17
250 K, 7010.3 kPa | 567.78
260 K, 506.6 kPa | 546.1
260 K, 1013.8 kPa | 546.96
260 K, 1503.5 kPa | 547.77
260 K, 1999.7 kPa | 548.6
260 K, 2504.5 kPa | 549.42
260 K, 3012.1 kPa | 550.24
260 K, 3513.3 kPa | 551.04
260 K, 4020 kPa | 551.84
260 K, 4498.9 kPa | 552.58
260 K, 5014.5 kPa | 553.38
260 K, 5513.9 kPa | 554.12
260 K, 6028.2 kPa | 554.89
260 K, 6522.8 kPa | 555.62
260 K, 7048.9 kPa | 556.4
270 K, 504.7 kPa | 532.93
270 K, 1012.9 kPa | 533.91
270 K, 1510.4 kPa | 534.87
270 K, 2005.4 kPa | 535.83
270 K, 2499.6 kPa | 536.75
270 K, 3017.5 kPa | 537.7
270 K, 3497.1 kPa | 538.57
270 K, 4018.8 kPa | 539.5
270 K, 4488.2 kPa | 540.32
270 K, 5023.8 kPa | 541.26
270 K, 5504.7 kPa | 542.05
270 K, 6021.1 kPa | 542.91
270 K, 6525.8 kPa | 543.74
270 K, 7024.1 kPa | 544.55
280 K, 1000 kPa | 520.1
280 K, 1466.1 kPa | 521.15
280 K, 1964.2 kPa | 522.28
280 K, 2513 kPa | 523.49
280 K, 3032.9 kPa | 524.61
280 K, 3519.3 kPa | 525.6
280 K, 4049.7 kPa | 526.68
280 K, 4527.5 kPa | 527.65
280 K, 4963.1 kPa | 528.5
280 K, 5443.4 kPa | 529.45
280 K, 5982.8 kPa | 530.51
280 K, 6522.6 kPa | 531.56
280 K, 7034.7 kPa | 532.51
290 K, 1499.4 kPa | 506.71
290 K, 2004.4 kPa | 508.04
290 K, 2510 kPa | 509.33
290 K, 2998.9 kPa | 510.56
290 K, 3484 kPa | 511.74
290 K, 4018.1 kPa | 513.03
290 K, 4476.9 kPa | 514.12
290 K, 5036.3 kPa | 515.41
290 K, 5531.4 kPa | 516.52
290 K, 5957.4 kPa | 517.46
290 K, 6525.4 kPa | 518.7
290 K, 7049.2 kPa | 519.81
300 K, 1517.7 kPa | 491.19
300 K, 2015.2 kPa | 492.77
300 K, 2519.2 kPa | 494.32
300 K, 3032.3 kPa | 495.86
300 K, 3486.3 kPa | 497.18
300 K, 4036.8 kPa | 498.73
300 K, 4462.1 kPa | 499.91
300 K, 4937 kPa | 501.23
300 K, 5518.9 kPa | 502.75
300 K, 6063.5 kPa | 504.2
300 K, 6496.7 kPa | 505.29
300 K, 7004.4 kPa | 506.54
310 K, 1514.4 kPa | 473.96
310 K, 2018.8 kPa | 475.98
310 K, 2491.2 kPa | 477.78
310 K, 3012.9 kPa | 479.7
310 K, 3515 kPa | 481.48
310 K, 4040.6 kPa | 483.29
310 K, 4528.9 kPa | 484.91
310 K, 5029.4 kPa | 486.52
310 K, 5529.3 kPa | 488.08
310 K, 6046.3 kPa | 489.64
310 K, 6510.1 kPa | 491.02
310 K, 6991.8 kPa | 492.41
320 K, 2011.4 kPa | 457.17
320 K, 2513.8 kPa | 459.66
320 K, 3002.1 kPa | 461.96
320 K, 3495.1 kPa | 464.17
320 K, 4025.8 kPa | 466.44
320 K, 4519.6 kPa | 468.46
320 K, 5017.9 kPa | 470.44
320 K, 5536.8 kPa | 472.4
320 K, 6024.8 kPa | 474.19
320 K, 6523.4 kPa | 475.95
320 K, 7008.9 kPa | 477.63
330 K, 2033.9 kPa | 435.23
330 K, 2537.4 kPa | 438.74
330 K, 3032 kPa | 441.91
330 K, 3546.3 kPa | 445
330 K, 3909.1 kPa | 447.05
330 K, 3995.4 kPa | 447.53
330 K, 4495.8 kPa | 450.17
330 K, 4996.1 kPa | 452.66
330 K, 5488.6 kPa | 455.01
330 K, 6010.6 kPa | 457.38
330 K, 6499.8 kPa | 459.5
330 K, 6985.1 kPa | 461.52
340 K, 3024.2 kPa | 417.87
340 K, 3507.8 kPa | 422.07
340 K, 4014 kPa | 426.05
340 K, 4501.8 kPa | 429.56
340 K, 5027.1 kPa | 433.06
340 K, 5516.7 kPa | 436.1
340 K, 5985 kPa | 438.83
340 K, 6494.7 kPa | 441.64
340 K, 6964.1 kPa | 444.1
350 K, 3541.2 kPa | 393.49
350 K, 4011.9 kPa | 399.51
350 K, 4505.9 kPa | 404.94
350 K, 5024.8 kPa | 409.94
350 K, 5521.6 kPa | 414.24
350 K, 6027.1 kPa | 418.22
350 K, 6491.4 kPa | 421.59
350 K, 6978.1 kPa | 424.88
360 K, 4043.5 kPa | 362.08
360 K, 4527.8 kPa | 372.52
360 K, 5043 kPa | 380.99
360 K, 5524.7 kPa | 387.51
360 K, 6048.5 kPa | 393.63
360 K, 6529.9 kPa | 398.56
360 K, 6953.8 kPa | 402.5
370 K, 779.8 kPa | 11.91
370 K, 1089.1 kPa | 17.21
370 K, 1515.9 kPa | 25.15
370 K, 2081.6 kPa | 37.08
370 K, 2783.7 kPa | 55.36
370 K, 4325.4 kPa | 287.46
370 K, 4521.7 kPa | 312.65
370 K, 4996.9 kPa | 336.94
370 K, 5527.4 kPa | 352.01
370 K, 5998 kPa | 361.65
370 K, 6504.8 kPa | 369.98
370 K, 7066.4 kPa | 377.66
380 K, 813.8 kPa | 12.27
380 K, 1223.8 kPa | 19.12
380 K, 1564.3 kPa | 25.22
380 K, 2032 kPa | 34.39
380 K, 2630.4 kPa | 47.9
380 K, 3340.1 kPa | 67.96
380 K, 4059 kPa | 97.16
380 K, 4059.9 kPa | 97.18
380 K, 4060.6 kPa | 97.22
380 K, 4556.5 kPa | 131.82
380 K, 5335.4 kPa | 273.87
380 K, 5530.3 kPa | 291.64
380 K, 6044.5 kPa | 318.37
380 K, 6541.5 kPa | 333.99
380 K, 7012.1 kPa | 344.89

Liquid
Conditions | mass density [kg/m3] | vapor or sublimation pressure [kPa]
240 K | 570.28 | 147.9
250 K | 558.29 | 217.7
260 K | 545.77 | 310.3
270 K | 532.67 | 429.6
290 K | 504.75 | 768.6
300 K | 489.48 | 997.6
310 K | 472.96 | 1272.1
320 K | 455 | 1600.7
330 K | 434.9 | 1988.8
340 K | 411.92 | 2429.7
350 K | 384.39 | 2948
360 K | 347.97 | 3552.2
